These results are taken from ChEMBL document CHEMBL6078656, “Pattern-Based Genome Mining Guides Discovery of the Antibiotic Indanopyrrole A from a Marine Streptomycete” (J Nat Prod, 2024).

One series has as its system Staphylococcus aureus. The series can be described thus: Antibacterial activity against Staphylococcus aureus TCH1516 assessed as inhibition of bacterial growth incubated for 24 hrs by CLSI based broth microdilution method. Type of series: functional.
The test system of a further series is Streptococcus. The series can be described thus: Antibacterial activity against Streptococcus M1T1 assessed as inhibition of bacterial growth incubated for 24 hrs by CLSI based broth microdilution method. Format: functional.
The next series has as its system Enterococcus faecium. The series can be described thus: Antibacterial activity against vancomycin-resistant Enterococcus faecium DAPS assessed as inhibition of bacterial growth incubated for 24 hrs by CLSI based broth microdilution method. Format: functional.
In series [1] the test system is Staphylococcus epidermidis. The series can be described thus: Antibacterial activity against methicillin-resistant Staphylococcus epidermidis assessed as inhibition of bacterial growth incubated for 24 hrs by CLSI based broth microdilution method. Type of series: functional.
The subject of series [2] is Haemophilus influenzae. The series can be described thus: Antibacterial activity against Haemophilus influenzae 1 assessed as inhibition of bacterial growth incubated for 24 hrs by CLSI based broth microdilution method. Type of series: functional.
The subject of series [3] is Haemophilus influenzae. The series can be described thus: Antibacterial activity against Haemophilus influenzae 2 assessed as inhibition of bacterial growth incubated for 24 hrs by CLSI based broth microdilution method. Type of series: functional.
Series [4] has as its system Escherichia coli. The series can be described thus: Antibacterial activity against Escherichia coli LptD4213 assessed as inhibition of bacterial growth incubated for 18 hrs by broth microdilution method. Type of series: functional.
Series [5] deals with Escherichia coli. The series can be described thus: Antibacterial activity against Escherichia coli K1 RS218 assessed as inhibition of bacterial growth incubated for 24 hrs by CLSI based broth microdilution method. Type of series: functional.
Another series deals with Acinetobacter baumannii. The series can be described thus: Antibacterial activity against Acinetobacter baumannii 5075 assessed as inhibition of bacterial growth incubated for 24 hrs by CLSI based broth microdilution method. Format: functional.
The subject of another series is A549. The series can be described thus: Cytotoxicity against human A549 cells assessed as increase in LDH release at 16 microg/ml incubated for 24 hrs. Type of series: toxicity, cell-based. As to conditions: a549, 24 h, dose 16 µg/ml.

≈ marks a conversion by molar mass, not a printed value.

For the compound `C/C(=C\[C@H]1C=C[C@H]2CC[C@@H](C)[C@@H]2[C@H]1C(=O)c1[nH]c(Cl)c(Cl)c1Cl)C[C@@H](C)C(=O)O`, the MIC in the series with Staphylococcus aureus worked out at 2 µg/mL (≈ 4.36 µM); with Streptococcus it was 4 µg/mL (≈ 8.72 µM); in the series with Enterococcus faecium, 4 µg/mL (≈ 8.72 µM); in series [1], 4 µg/mL (≈ 8.72 µM); in the series on Haemophilus influenzae [2] it was 1 µg/mL (≈ 2.18 µM); in the series on Haemophilus influenzae [3], 2 µg/mL (≈ 4.36 µM). For the same compound, the MIC with Escherichia coli [4] was 4 µg/mL (≈ 8.72 µM); with Escherichia coli [5] it was more than 32 µg/mL; in the series on Acinetobacter baumannii, more than 32 µg/mL. Further, the Activity result with A549 is “Toxic”.
With `C/C(=C\[C@H]1C=C[C@H]2CC[C@@H](C)[C@@H]2[C@H]1C(=O)c1cc(Cl)c(Cl)[nH]1)C[C@@H](C)C(=O)O`, the MIC in the series with Staphylococcus aureus, in the series on Streptococcus, with Enterococcus faecium and in the series with Escherichia coli [5] was more than 16 µg/mL each time.
